From patent US12059458B2, “Peptides and combination of peptides and scaffolds for use in immunotherapy against renal cell carcinoma (RCC) and other cancers” (Immatics Biotechnologies GmbH, priority 2015, dated 2024) come the findings set out here.

In one assay the target is HLA-A*02:01 (Homo sapiens, UniProt P04439, D140Y/D185E/D98H/E176V/E277Q/G131W/G231S/I119V/I121R/I166T/I218V/L300P/L318F/N151K/N90K/P208A/P217A/Q86G/Q94H/R138H/R169H/T345S). The assay can be described thus: MHC binding assay (UV-ligand exchange, beta2m ELISA, peptide exchange yield). To be noted: binding to HLA-A*02:01 ranged by peptide exchange yield, β2m ELISA. An excerpt:
Candidate peptides for T cell based therapies according to the present invention were further tested for their MHC binding capacity (affinity). The individual peptide-MHC complexes were produced by UV-ligand exchange, where a UV-sensitive peptide is cleaved upon UV-irradiation, and exchanged with the peptide of interest as analyzed. Only peptide candidates that can effectively bind and stabilize the peptide-receptive MHC molecules prevent dissociation of the MHC complexes. To determine the yield of the exchange reaction, an ELISA was performed based on the detection of the light chain (β2m) of stabilized MHC complexes. The assay was performed as generally described in Rodenko et al. (Rodenko et al., 2006).
96 well MAXISorp plates (NUNC) were coated over night with 2 ug/ml streptavidin in PBS at room temperature, washed 4× and blocked for 1 h at 37° C. in 2% BSA containing blocking buffer. Refolded HLA-A*02:01/MLA-001 monomers served as standards, covering the range of 15-500 ng/ml. Peptide-MHC monomers of the UV-exchange reaction were diluted 100 fold in blocking buffer. Samples were incubated for 1 h at 37° C., washed four times, incubated with 2 ug/ml HRP conjugated anti-β2m for 1h at 37° C., washed again and detected with TMB solution that is stopped with […]. Absorption was measured at 450 nm. Candidate peptides that show a high exchange yield (preferably higher than 50%, most preferred higher than 75%) are generally preferred for a generation and production of antibodies or fragments thereof, and/or T cell receptors or fragments thereof, as they show sufficient avidity to the MHC molecules and prevent dissociation of the MHC complexes.
In general terms: ELISA stands for enzyme-linked immunosorbent assay.

For assay [1], the system named is CD8+ T cells of healthy HLA-A*02 donors. The assay can be described thus: In vitro immunogenicity: T-cell priming with aAPCs loaded with peptide/MHC complexes and anti-CD28 antibody, pMHC multimer readout. Format: cell-based, human. The conditions noted are these: for Wells positive [%]: Table 10B; for donors: percentage of positive donors; for donors / wells: Table 10A; for wells: percentage of positive wells. The source says: In order to obtain information regarding the immunogenicity of the TUMAPs of the present invention, the inventors performed investigations using an in vitro T-cell priming assay based on repeated stimulations of CD8+ T cells with artificial antigen presenting cells (aAPCs) loaded with peptide/MHC complexes and anti-CD28 antibody.
In order to perform in vitro stimulations by artificial antigen presenting cells loaded with peptide-MHC complex (pMHC) and anti-CD28 antibody, the inventors first isolated CD8+ T cells from fresh HLA-A*02 leukapheresis products via positive selection using CD8 microbeads (Miltenyi Biotec, Bergisch-Gladbach, Germany) of healthy donors obtained from the University clinics Mannheim, Germany, after informed consent.
PBMCs and isolated CD8+ lymphocytes were incubated in T-cell medium (TCM) until use consisting of RPMI-Glutamax (Invitrogen, Karlsruhe, Germany) supplemented with 10% heat inactivated human AB serum (PAN-Biotech, Aidenbach, Germany), 100 U/ml Penicillin/100 μg/ml Streptomycin (Cambrex, Cologne, Germany), 1 mM sodium pyruvate (CC Pro, Oberdorla, Germany), 20 μg/ml Gentamycin (Cambrex). 2.5 ng/ml IL-7 (PromoCell, Heidelberg, Germany) and 10 U/ml IL-2 (Novartis Pharma, Nümberg, Germany) were also added to the TCM at this step.
Generation of pMHC/anti-CD28 coated beads, T-cell stimulations and readout was performed in a highly defined in vitro system using four different pMHC molecules per stimulation condition and 8 different pMHC molecules per readout condition.
The purified co-stimulatory mouse IgG2a anti human CD28 Ab 9.3 (Jung et al., 1987) was chemically biotinylated using Sulfo-N-hydroxysuccinimidobiotin as recommended by the manufacturer (Perbio, Bonn, Germany). Beads used were 5.6 μm diameter streptavidin coated polystyrene particles (Bangs Laboratories, Illinois, USA).
pMHC used for positive and negative control stimulations were A*0201/MLA-001 (peptide […] (SEQ ID NO. 152) from modified Melan-A/MART-1) and A*0201/DDX5-001 ([…] from DDX5 (SEQ ID NO. 153)), respectively.
800.000 beads/200 μl were coated in 96-well plates in the presence of 4×12.5 ng different biotin-pMHC, washed and 600 ng biotin anti-CD28 were added subsequently in a volume of 200 μl. Stimulations were initiated in 96-well plates by co-incubating […] CD8+ T cells with 2×10^5 washed coated beads in 200 μl TCM supplemented with 5 ng/ml IL-12 (PromoCell) for 3 days at 37° C. Half of the medium was then exchanged by fresh TCM supplemented with 80 U/ml IL-2 and incubating was continued for 4 days at 37° C. This stimulation cycle was performed for a total of three times. For the pMHC multimer readout using 8 different pMHC molecules per condition, a two-dimensional combinatorial coding approach was used as previously described (Andersen et al., 2012) with minor modifications encompassing coupling to 5 different fluorochromes. Finally, multimeric analyses were performed by staining the cells with Live/dead near IR dye (Invitrogen, Karlsruhe, Germany), CD8-FITC antibody clone SK1 (BD, Heidelberg, Germany) and fluorescent pMHC multimers. For analysis, a BD LSRII SORP cytometer equipped with appropriate lasers and filters was used. Peptide specific cells were calculated as percentage of total CD8+ cells. Evaluation of multimeric analysis was done using the FlowJo software (Tree Star, Oregon, USA). In vitro priming of specific multimer+ CD8+ lymphocytes was detected by comparing to negative control stimulations.

“1 (ALIVSLPYL; listed as Homo sapiens) [compound 1]”: the “Peptide exchange (MHC class I binding score)” value (“Peptide exchange” for short) with HLA-A*02:01 is “+++ (≥50 = +++)”. Further, the “Wells positive [%]” value in assay [1] was “+ (<20% = +)”.

Turning to “9 (ILLQKPDSV; listed as Homo sapiens) [compound 9]”, in the assay with HLA-A*02:01, the “Peptide exchange” value is “++ (≥20% = ++)”. For the same substance, the “Wells positive [%]” value in assay [1] was “+ (<20% = +)”.

With “36 (SLFGKKYIL; listed as Homo sapiens) [compound 36]”, the “Peptide exchange” value in the assay with HLA-A*02:01 is given as “++ (≥20% = ++)”. Also, the “Wells positive [%]” value in assay [1] is “++ (20%-49% = ++)”.

“123 (YVDPVITSI; listed as Homo sapiens) [compound 123]”: in assay [1], the donors entry was “++++ (> = 70% = ++++)” and the wells result is recorded as “+ (<20% = +)”.

On to “94 (ILHHKVYDL; listed as Homo sapiens) [compound 94]”, for which the “Peptide exchange” value with HLA-A*02:01 is “++ (≥20% = ++)”. In assay [1], the “Wells positive [%]” value is listed as “++ (20%-49% = ++)”.

For the substance “95 (KLTDVGIATL; listed as Homo sapiens) [compound 95]”, the “Peptide exchange” value in the assay with HLA-A*02:01 is “++ (≥20% = ++)”. For the same substance, the “Wells positive [%]” value in assay [1] was “++++ (> = 70% = ++++)”.

Consider “29 (ILLDLEQAL; listed as Homo sapiens) [compound 29]”, for which, in the assay with HLA-A*02:01, the “Peptide exchange” value was “+++ (≥50 = +++)”. Moreover, the “Wells positive [%]” value in assay [1] was “+ (<20% = +)”.

In the case of “16 (FMPEELPQL; listed as Homo sapiens) [compound 16]”, in the assay with HLA-A*02:01, the “Peptide exchange” value is recorded as “++ (≥20% = ++)”. For the same substance, the “Wells positive [%]” value in assay [1] is “+ (<20% = +)”.

In the case of “143 (ALFVRLLALA; listed as Homo sapiens) [compound 143]”, in assay [1], the donors entry is on record as “+++ (50%-69% = +++)” and the wells entry is listed as “+ (<20% = +)”.

“3 (RLLGEVQAL; listed as Homo sapiens) [compound 3]”: in the assay with HLA-A*02:01, the “Peptide exchange” value is recorded as “++ (≥20% = ++)”. For the same substance, in assay [1], the “Wells positive [%]” value is on record as “+ (<20% = +)”.

With “7 (FLLSLIDRL; listed as Homo sapiens) [compound 7]”, the “Peptide exchange” value with HLA-A*02:01 was “+++ (≥50 = +++)”. In assay [1], the “Wells positive [%]” value is listed as “+ (<20% = +)”.

As for “22 (FLSPPLPSV; listed as Homo sapiens) [compound 22]”, in the assay with HLA-A*02:01, the “Peptide exchange” value is reported as “+++ (≥50 = +++)”. In assay [1], the “Wells positive [%]” value is “++ (20%-49% = ++)”.

In the case of “15 (ILIKHLVKV; listed as Homo sapiens) [compound 15]”, in the assay with HLA-A*02:01, the “Peptide exchange” value is “++ (≥20% = ++)”. In addition, in assay [1], the “Wells positive [%]” value is reported as “+ (<20% = +)”.

With “20 (AVANTTFTV; listed as Homo sapiens) [compound 20]”, in the assay with HLA-A*02:01, the “Peptide exchange” value was “++ (≥20% = ++)”. The “Wells positive [%]” value in assay [1] is reported as “+ (<20% = +)”.

“127 (VLAPLFVYL; listed as Homo sapiens) [compound 127]”: in assay [1], the donors entry is reported as “++++ (> = 70% = ++++)” and the wells entry is given as “++ (20%-49% = ++)”.

As for “98 (KIPPVSPSI; listed as Homo sapiens) [compound 98]”, in the assay with HLA-A*02:01, the “Peptide exchange” value is “++ (≥20% = ++)”. Further, the “Wells positive [%]” value in assay [1] was “++++ (> = 70% = ++++)”.

On to “18 (YVLDLAAKV; listed as Homo sapiens) [compound 18]”, for which the “Peptide exchange” value in the assay with HLA-A*02:01 was “+++ (≥50 = +++)”. The “Wells positive [%]” value in assay [1] is reported as “++ (20%-49% = ++)”.

As to “6 (VLFELSKTV; listed as Homo sapiens) [compound 6]”, in the assay with HLA-A*02:01, the “Peptide exchange” value is “+++ (≥50 = +++)”. In addition, the “Wells positive [%]” value in assay [1] was “+ (<20% = +)”.

In the case of “34 (ELNNQNFYL; listed as Homo sapiens) [compound 34]”, the “Peptide exchange” value with HLA-A*02:01 is listed as “+++ (≥50 = +++)”. For the same substance, the “Wells positive [%]” value in assay [1] was “++ (20%-49% = ++)”.

For “2 (ILWREVVTL; listed as Homo sapiens) [compound 2]”, in the assay with HLA-A*02:01, the “Peptide exchange” value was “+++ (≥50 = +++)”. For the same substance, the “Wells positive [%]” value in assay [1] is on record as “+ (<20% = +)”.

With “110 (LLDLHSYLL; listed as Homo sapiens) [compound 110]”, the “Peptide exchange” value with HLA-A*02:01 was “++ (≥20% = ++)”.

Take “99 (GLAPHLEQI; listed as Homo sapiens) [compound 99]”: the “Peptide exchange” value with HLA-A*02:01 is listed as “++ (≥20% = ++)”.

Consider “41 (GLLKTLQKL; listed as Homo sapiens) [compound 41]”, for which the “Peptide exchange” value in the assay with HLA-A*02:01 was “++ (≥20% = ++)”.

Turning to “28 (FIADLVVGL; listed as Homo sapiens) [compound 28]”, the “Peptide exchange” value with HLA-A*02:01 is listed as “++ (≥20% = ++)”.

With “107 (VLMDLKALLL; listed as Homo sapiens) [compound 107]”, in the assay with HLA-A*02:01, the “Peptide exchange” value is “+++ (≥50 = +++)”.
